Biological target: T1, MAP2K7 (Homo sapiens, UniProt O14733)
T1 sequence (O14733 2-419): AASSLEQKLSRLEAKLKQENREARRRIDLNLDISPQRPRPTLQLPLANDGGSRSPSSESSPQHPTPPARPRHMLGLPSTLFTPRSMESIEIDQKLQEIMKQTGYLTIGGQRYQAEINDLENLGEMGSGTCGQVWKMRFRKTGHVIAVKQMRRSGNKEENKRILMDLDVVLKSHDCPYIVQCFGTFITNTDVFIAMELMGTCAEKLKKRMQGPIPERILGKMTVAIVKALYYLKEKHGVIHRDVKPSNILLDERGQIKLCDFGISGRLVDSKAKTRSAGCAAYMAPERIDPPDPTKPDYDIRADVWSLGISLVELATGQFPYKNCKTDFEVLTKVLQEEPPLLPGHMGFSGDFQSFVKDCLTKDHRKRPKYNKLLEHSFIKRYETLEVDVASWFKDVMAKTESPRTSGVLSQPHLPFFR
Test: ADP-Glo kinase assay, purified human MAP2K7 with dead-JNK2 substrate and ATP
Type: biochemical

Q: For `CC(=O)c1cnc2ccc(-c3cc(Cl)c(O)c(Cl)c3)nc2c1N[C@H]1CC[C@H](CN(C)C)CC1` [OTSSP167], which IC50 is on record?
A: 160 nM

— publication PMC9979715 (Blood Advances, 2022)
